Laboratory results taken from the supplement of paper PMC10307832.

How the values were obtained:
Test in all cases: relative viability (nuclei count vs DMSO), 5 days (fraction); higher = more cells survive
[1] = test system: NCI-H1734
Outline: (§1)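 Lung cancer cell lines were seeded in 1536-well plates and dosed by pin tool the next day, with either a single drug or a fixed anchor-drug dose combined with five library-drug doses (not always all listed) spaced in √10 steps. Five days later, one step fixed the cells and stained their nuclei (final 0.05% Triton X-100, 1% formaldehyde, 1 ug/ml Hoechst), and nuclei were counted on 4× images. Relative viability is the nuclei count in treated wells divided by the count in vehicle wells, and each value is the median of duplicate plates.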

[2] = test system: SW 900
Outline: as §1

[3] = test system: LK-2
Outline: as §1

[4] = test system: HARA
Outline: as §1

[5] = test system: EPLC-272H
Outline: as §1

[6] = test system: NCI-H596
Outline: as §1

[7] = test system: NCI-H460
Outline: as §1

[8] = test system: NCI-H1755
Outline: as §1

[9] = test system: LU99A
Outline: as §1

[10] = test system: A-427
Outline: as §1

[11] = test system: EMC-BAC-2
Outline: as §1

[12] = test system: NCI-H522
Outline: as §1

[13] = test system: NCI-H358
Outline: as §1

[14] = test system: NCI-H1993
Outline: as §1

[15] = test system: NCI-H1650
Outline: as §1

[16] = test system: NCI-H2405
Outline: as §1

[17] = test system: COR-L 105
Outline: as §1

[18] = test system: RERF-LC-KJ
Outline: as §1

[19] = test system: NCI-H647
Outline: as §1

[20] = test system: EKVX
Outline: as §1

[21] = test system: ChaGo-K-1
Outline: as §1

[22] = test system: HCC-44
Outline: as §1

SMILES: Cc1csc(=NC2CCCCC2)n1/N=C/c1ccc(O)c(O)c1O [MIM1] + O=C(CCCCCCC(=O)Nc1ccccc1)NO [Vorinostat] (partner 1 µM)
- relative viability ([1]; first compound 0.2 µM): 0.911
- relative viability ([1]; first compound 0.6325 µM): 0.582
- relative viability ([1]; first compound 2 µM): 0.757
- relative viability ([1]; first compound 6.325 µM): 0.442
- relative viability ([1]; first compound 20 µM): 0.125
- relative viability ([2]; first compound 0.2 µM): 0.45
- relative viability ([2]; first compound 0.6325 µM): 0.632
- relative viability ([2]; first compound 2 µM): 0.549
- relative viability ([2]; first compound 6.325 µM): 0.175
- relative viability ([2]; first compound 20 µM): 0.187
- relative viability ([3]; first compound 0.2 µM): 0.363
- relative viability ([3]; first compound 0.6325 µM): 0.272
- relative viability ([3]; first compound 2 µM): 0.304
- relative viability ([3]; first compound 6.325 µM): 0.562
- relative viability ([3]; first compound 20 µM): 0.203
- relative viability ([4]; first compound 0.2 µM): 0.523
- relative viability ([4]; first compound 0.6325 µM): 0.467
- relative viability ([4]; first compound 2 µM): 0.56
- relative viability ([4]; first compound 6.325 µM): 0.511
- relative viability ([4]; first compound 20 µM): 0.0696
- relative viability ([5]; first compound 0.2 µM): 0.509
- relative viability ([5]; first compound 0.6325 µM): 0.523
- relative viability ([5]; first compound 2 µM): 0.343
- relative viability ([5]; first compound 6.325 µM): 0.125
- relative viability ([5]; first compound 20 µM): 0.126
- relative viability ([6]; first compound 0.2 µM): 0.719
- relative viability ([6]; first compound 0.6325 µM): 0.722
- relative viability ([6]; first compound 2 µM): 0.561
- relative viability ([6]; first compound 6.325 µM): 0.559
- relative viability ([6]; first compound 20 µM): 0.337
- relative viability ([7]; first compound 0.2 µM): 0.703
- relative viability ([7]; first compound 0.6325 µM): 0.746
- relative viability ([7]; first compound 2 µM): 0.411
- relative viability ([7]; first compound 6.325 µM): 0.117
- relative viability ([7]; first compound 20 µM): 0.0234
- relative viability ([8]; first compound 0.2 µM): 0.708
- relative viability ([8]; first compound 0.6325 µM): 0.65
- relative viability ([8]; first compound 2 µM): 0.792
- relative viability ([8]; first compound 6.325 µM): 0.671
- relative viability ([8]; first compound 20 µM): 0.296
- relative viability ([9]; first compound 0.2 µM): 0.515
- relative viability ([9]; first compound 0.6325 µM): 0.435
- relative viability ([9]; first compound 2 µM): 0.463
- relative viability ([9]; first compound 6.325 µM): 0.387
- relative viability ([9]; first compound 20 µM): 0.119
- relative viability ([10]; first compound 0.2 µM): 0.858
- relative viability ([10]; first compound 0.6325 µM): 0.663
- relative viability ([10]; first compound 2 µM): 0.849
- relative viability ([10]; first compound 6.325 µM): 0.745
- relative viability ([10]; first compound 20 µM): 0.312
- relative viability ([11]; first compound 0.2 µM): 0.492
- relative viability ([11]; first compound 0.6325 µM): 0.302
- relative viability ([11]; first compound 2 µM): 0.404
- relative viability ([11]; first compound 6.325 µM): 0.313
- relative viability ([11]; first compound 20 µM): 0.157
- relative viability ([12]; first compound 0.2 µM): 0.858
- relative viability ([12]; first compound 0.6325 µM): 0.916
- relative viability ([12]; first compound 2 µM): 0.91
- relative viability ([12]; first compound 6.325 µM): 0.891
- relative viability ([12]; first compound 20 µM): 0.345
- relative viability ([13]; first compound 0.2 µM): 0.741
- relative viability ([13]; first compound 0.6325 µM): 0.628
- relative viability ([13]; first compound 2 µM): 0.678
- relative viability ([13]; first compound 6.325 µM): 0.235
- relative viability ([13]; first compound 20 µM): 0.169
- relative viability ([14]; first compound 0.2 µM): 0.851
- relative viability ([14]; first compound 0.6325 µM): 0.601
- relative viability ([14]; first compound 2 µM): 0.601
- relative viability ([14]; first compound 6.325 µM): 0.348
- relative viability ([14]; first compound 20 µM): 0.413
- relative viability ([15]; first compound 0.2 µM): 0.617
- relative viability ([15]; first compound 0.6325 µM): 0.562
- relative viability ([15]; first compound 2 µM): 0.451
- relative viability ([15]; first compound 6.325 µM): 0.119
- relative viability ([15]; first compound 20 µM): 0.179
- relative viability ([16]; first compound 0.2 µM): 1.01
- relative viability ([16]; first compound 0.6325 µM): 0.964
- relative viability ([16]; first compound 2 µM): 1.11
- relative viability ([16]; first compound 6.325 µM): 0.749
- relative viability ([16]; first compound 20 µM): 0.416
- relative viability ([17]; first compound 0.2 µM): 0.809
- relative viability ([17]; first compound 0.6325 µM): 0.821
- relative viability ([17]; first compound 2 µM): 0.774
- relative viability ([17]; first compound 6.325 µM): 0.731
- relative viability ([17]; first compound 20 µM): 0.616
- relative viability ([18]; first compound 0.2 µM): 0.616
- relative viability ([18]; first compound 0.6325 µM): 0.558
- relative viability ([18]; first compound 2 µM): 0.507
- relative viability ([18]; first compound 6.325 µM): 0.317
- relative viability ([18]; first compound 20 µM): 0.225
- relative viability ([19]; first compound 0.2 µM): 0.655
- relative viability ([19]; first compound 0.6325 µM): 0.61
- relative viability ([19]; first compound 2 µM): 0.614
- relative viability ([19]; first compound 6.325 µM): 0.454
- relative viability ([19]; first compound 20 µM): 0.104
- relative viability ([20]; first compound 0.2 µM): 0.609
- relative viability ([20]; first compound 2 µM): 0.707
- relative viability ([20]; first compound 6.325 µM): 0.473
- relative viability ([20]; first compound 20 µM): 0.265
- relative viability ([21]; first compound 0.2 µM): 0.714
- relative viability ([21]; first compound 0.6325 µM): 0.449
- relative viability ([21]; first compound 2 µM): 0.699
- relative viability ([21]; first compound 6.325 µM): 0.543
- relative viability ([21]; first compound 20 µM): 0.157
- relative viability ([22]; first compound 0.2 µM): 1.1
- relative viability ([22]; first compound 0.6325 µM): 1.1
- relative viability ([22]; first compound 2 µM): 1.01
- relative viability ([22]; first compound 6.325 µM): 1.08
- relative viability ([22]; first compound 20 µM): 0.324
